In patent publication US11639496B2, “Reducing fratricide of immune cells expressing NKG2D-based receptors” (CELYAD S.A, priority 2017, dated 2023):

How the values were obtained:
Assay type in all cases: cell-based, human
[1] = test system: NKG2D (CD314); assay: Flow cytometry of NKG2D (CD314) cell surface expression on NKR-2 T cells
Description: (§1) (A) MFI of NKG2D expression on NKR-2 T cells treated or not with increasing concentrations of LY294002. Data shown are mean±SD of N=3 independent donors. (B) Transduced T cells were cultured in complete X-vivo (100 IU/ml IL-2) supplemented or not with increasing concentrations of LY294002 for expansion. T cells were analyzed 96 h after seeding for fold expansion relative to the initial cell seeding density. Data shown are mean±SD of N=3 independent donors. (C) Viability of cells after cryopreservation. NKR-2 T cells were produced in presence of increasing concentration of LY294002. After production, cells were harvested, washed, and formulate for cryopreservation. After cryopreservation, cells were thawed using a water bath and resuspended in Plasmalyte/Human Serum Albumin (HSA) 5%. Cells viability was directly assessed after thawing (T0 h) or after 6 hours at 4° C. in Plasmalyte/HSA5% (T6 h) (N=[…]) (D) NKR-2 T cells were produced in presence of increasing concentration of LY294002. […] After 48 hours, cell viability was assessed using trypan blue staining (N=3) and normalized for the number of cells at cryopreservation (E) tCD19 T cells were co-cultured with NKR-2 T cells generated from the same donor in presence of increasing concentrations of blocking Ab (from 0 (−) to 10 μg/ml). […] Following a 24 h incubation, supernatants were harvested and IFN-γ measured (N=3). […]

[2] = test system: K562 or PANC-1 cells; assay: Cytokine release assay: IFN-γ ELISA after co-culture of NKR-2 T cells with cancer cells; conditions: cells cultured with PI3K inhibitor (5 μM CAL101), compared with blocking NKG2D antibody
Description: Fresh NKR-2 T cells and/or control tCD19 cells were incubated with K562 or PANC-1 cells at a ratio of 1:1 in X-Vivo 15 containing 5% HS. Following an incubation of 24 h supernatants were harvested and IFN-γ measured by ELISA (R&D Systems, SIF50) according to manufacturer's protocol. As a positive control cells were activated with PMA (Sigma-Aldrich, P8139-5MG) and ionomycin (Sigma-Aldrich, 10634-1MG). To assess the background levels of activation the cells received no stimulus.
Antibody Inhibition Assay NKR-2 T cells were incubated with 1 μg/mL of NKG2D blocking antibody, isotype control or no antibody for 24 hours and subsequently NKR-2 T cells mediated secretion of IFN-γ measured. Similarly, NKR-2 cells were co-cultured with cancer cells in the presence of antibody and cytokine secretion measured.

[3] = test system: NKR-2 T cells; assay: Fold expansion / cell yield of NKR-2 (NKG2D CAR) T cells during manufacturing culture; conditions: compared to cells without inhibition of NKG2D signaling
Description: as §1, with “After cryopreservation, cells were thawed using a water bath and resuspended in Plasmalyte/Human Serum Albumin (HSA) 5%.” left out
FIG. 9: NKR-2 T cells Ab blockade process adaptation restores CD4/CD8 ratio. […] PANC-1 viability was assessed every 2 hours by the IncuCyte S3 device. […]

O=c1cc(N2CCOCC2)oc2c(-c3ccccc3)cccc12 [LY294002]
concentration at which NKG2D expression reaches the level of control tCD19 T cells [1]: 10 µM

CC[C@H](Nc1ncnc2[nH]cnc12)c1nc2cccc(F)c2c(=O)n1-c1ccccc1 [Cal-101, idelalisib]
IFN gamma secretion post co-culture with K562 cells [2]: produce more interferon

Nc1cccc(-c2cc3c(Oc4cccc(O)c4)ncnc3[nH]2)c1 [TWS119]
expansion with downstream inhibitors of the PI3K pathway [3]: expansion is increased
